Laboratory results reported in US9155724B2, “Combination methods for treatment of disease” (Whitehead Institute for Biomedical Research, priority 2010, dated 2015).
Where a name gives a salt, the structure may show the parent alone.

Assays:
[1] = cited from earlier work
[2] = biological target: T1, P-TEFb (Mus musculus, UniProt Q99J95); experiment: Spt5 and NelfA ChIP-chip in flavopiridol-treated mES cells; format: cell-based, murine; conditions: flavopiridol for 60 minutes
T1 construct: endogenous in cells; host or cells: V6.5 (C57BL/6-129) murine ES cells
T1 sequence (Q99J95 whole entry): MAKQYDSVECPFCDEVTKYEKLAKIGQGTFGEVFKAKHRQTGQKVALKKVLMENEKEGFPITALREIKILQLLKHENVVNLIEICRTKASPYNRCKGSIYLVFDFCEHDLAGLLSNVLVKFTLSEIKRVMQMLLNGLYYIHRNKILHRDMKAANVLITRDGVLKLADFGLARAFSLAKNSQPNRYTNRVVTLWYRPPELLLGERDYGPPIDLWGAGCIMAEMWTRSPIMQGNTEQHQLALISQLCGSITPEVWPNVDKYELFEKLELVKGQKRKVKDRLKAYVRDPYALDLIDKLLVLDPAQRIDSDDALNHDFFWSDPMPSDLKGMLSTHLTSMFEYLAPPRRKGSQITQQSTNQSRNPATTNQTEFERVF
T1 sequence (Q9QWV9 whole entry partner): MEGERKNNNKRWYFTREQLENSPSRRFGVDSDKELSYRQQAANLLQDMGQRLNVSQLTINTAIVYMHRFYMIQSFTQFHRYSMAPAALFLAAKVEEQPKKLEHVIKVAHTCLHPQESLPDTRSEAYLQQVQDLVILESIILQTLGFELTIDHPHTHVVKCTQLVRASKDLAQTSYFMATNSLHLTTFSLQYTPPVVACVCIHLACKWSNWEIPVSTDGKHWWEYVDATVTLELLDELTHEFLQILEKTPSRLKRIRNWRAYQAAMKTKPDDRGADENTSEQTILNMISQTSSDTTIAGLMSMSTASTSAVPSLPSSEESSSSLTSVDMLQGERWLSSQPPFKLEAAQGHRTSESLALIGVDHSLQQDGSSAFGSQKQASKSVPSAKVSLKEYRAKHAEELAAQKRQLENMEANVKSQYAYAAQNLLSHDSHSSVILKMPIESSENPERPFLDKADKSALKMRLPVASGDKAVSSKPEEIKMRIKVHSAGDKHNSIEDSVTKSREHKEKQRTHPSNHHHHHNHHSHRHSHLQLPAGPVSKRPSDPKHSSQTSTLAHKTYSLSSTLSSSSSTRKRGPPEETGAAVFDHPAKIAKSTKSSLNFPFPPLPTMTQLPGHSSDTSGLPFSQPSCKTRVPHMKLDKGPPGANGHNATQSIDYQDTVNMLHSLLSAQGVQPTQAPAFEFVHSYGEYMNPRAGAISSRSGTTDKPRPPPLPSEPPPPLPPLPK
Description: (A) Pairwise correlation analysis of Spt5, NelfA and Pol II (all) ChIP-seq occupancy in mES cells. […] (B) Western blot analysis of mES cells treated with 1 mM flavopiridol or control for 60 minutes prior. […] (C) Average gene binding for NelfA and Spt5 following 1 mM flavopiridol (red) or control (black) for 60 minutes in mES cells. The average ChIP-chip enrichment was determined in each bin (250 bp) in each condition and plotted from −4 kb to +2 kb.
We used ChIP-chip to determine if Spt5 and NelfA co-occupy promoter proximal sites with Pol II when P-TEFb activity is inhibited by flavopiridol.
Purified immunoprecipitated DNA was amplified using two rounds of ligation mediated PCR (LM PCR), as described in (Lee et al., 2006b) and the Agilent Mammalian ChIP-on-chip protocol (version 9.1, November 2006). LM-PCR immunoprecipitated DNA was labeled with Cy5, LM-PCR input DNA was labeled with Cy3 using Invitrogen Bioprime random primer labeling kit. For microarray hybridization, the Agilent Mammalian ChIP-on-chip protocol (version 9.1, November 2006) was followed. In brief, mouse Cotl DNA, Agilent blocking buffer (1× final conc.), Agilent hybridization buffer (1× final conc.), was added to Cy5- and Cy3-labeled DNA. The mixture was incubated at 95° C. for 3 minutes, followed by 37° C. for 30 minutes. Sample was centrifuged for 1 min and sample was hybridized to Agilent DNA microarray. […]

[3] = biological target: T1, P-TEFb; experiment: Pol II ChIP-seq / traveling ratio in flavopiridol-treated mES cells; format: cell-based, murine
Description: (A) mES cells were treated with 1 μM flavopiridol for the indicated time. […] (B) RNA Pol II (all) ChIP-seq analysis in mES cells treated with control (DMSO for 60 minutes, black) or flavopiridol (1 μM for 60 minutes, red). […] Higher TR values indicate a higher degree of pausing.
To assess the role of P-TEFb-dependent pause release in global transcriptional control, we repeated the ChIP-Seq experiment for total Pol II in mES cells treated with flavopiridol, an inhibitor of Cdk9 kinase activity (Chao et al., 2000; Chao and Price, 2001; Ni et al., 2004). […] If Pol II pause release is required at transcribed genes, we would expect that in the presence of flavopiridol, Pol II molecules would remain associated with promoter proximal pause sites but be depleted from DNA further downstream. […] We analyzed traveling ratios to further evaluate changes in Pol II occupancy genome-wide.
V6.5 (C57BL/6-129) murine ES cells were grown under typical mES conditions on irradiated mouse embryonic fibroblasts (MEFs). For location analysis, cells were grown for two passages off of MEFs, on gelatinized tissue-culture plates. […]
To quantify this effect, we have developed a measure called Traveling Ratio (TR) that compares the ratio between Pol II density in the promoter and in the gene region. […]

[4] = cited from earlier work; remark: listed apart in the source
[5] = biological target: T1, P-TEFb; experiment: Western blot of P-TEFb target phosphorylation in flavopiridol-treated mES cells; format: cell-based, murine; conditions: 1 μM flavopiridol, within 60 min
Description: (A) mES cells were treated with 1 μM flavopiridol for the indicated time.
(A) mES cells were treated with the indicated flavopiridol concentration or DMSO alone (−), for 60 minutes.
To assess the role of P-TEFb-dependent pause release in global transcriptional control, we repeated the ChIP-Seq experiment for total Pol II in mES cells treated with flavopiridol, an inhibitor of Cdk9 kinase activity (Chao et al., 2000; Chao and Price, 2001; Ni et al., 2004).
V6.5 (C57BL/6-129) murine ES cells were grown under typical mES conditions on irradiated mouse embryonic fibroblasts (MEFs). […] For location analysis on mES cells following treatment with small molecule inhibitors, cells were grown two passages off feeders and prior to formaldehyde crosslinking, the cells were treated by addition of the indicated final concentration of flavopiridol (1 μM for 1 hour for ChIP-chip and ChIP-seq experiments, or the indicated concentration and time for Western blot analysis), or c-Myc/Max inhibitor 10058-F4 (50 μM for 6 hours), both dissolved in DMSO, to the growth medium. As a control, vehicle alone (DMSO) was added to the growth medium at the same final volume as with drug. Small molecule inhibitors used were: Flavopiridol (Sigma cat #F3055), and c-Myc inhibitor 10058-F4 (Sigma cat #F3680).
Western blots were done following standard protocols. Antibodies used for Western blots were as follows: Spt5: gift of Yuki Yamaguchi and Hiroshi Handa (Wada et al., 1998); NelfA: gift of Yuki Yamaguchi and Hiroshi Handa; Cdk9: Santa Cruz sc-484 and sc-8338, Ser2P Pol II: Abcam (H5 clone) ab24758; Ser5P Pol II: Abcam ab5131; Brg1: Santa Cruz sc-10768; Max: Santa Cruz sc-197; c-Myc: Santa Cruz-764; Cyclin T1: gift of David Price; Oct4: Santa Cruz sc-5279; and TBP: Abcam ab818.

[6] = biological target: c-Myc (Homo sapiens, UniProt P01106); conditions: relative to parent compound 10058-F4; cited from earlier work
c-Myc, sequence (P01106 whole entry): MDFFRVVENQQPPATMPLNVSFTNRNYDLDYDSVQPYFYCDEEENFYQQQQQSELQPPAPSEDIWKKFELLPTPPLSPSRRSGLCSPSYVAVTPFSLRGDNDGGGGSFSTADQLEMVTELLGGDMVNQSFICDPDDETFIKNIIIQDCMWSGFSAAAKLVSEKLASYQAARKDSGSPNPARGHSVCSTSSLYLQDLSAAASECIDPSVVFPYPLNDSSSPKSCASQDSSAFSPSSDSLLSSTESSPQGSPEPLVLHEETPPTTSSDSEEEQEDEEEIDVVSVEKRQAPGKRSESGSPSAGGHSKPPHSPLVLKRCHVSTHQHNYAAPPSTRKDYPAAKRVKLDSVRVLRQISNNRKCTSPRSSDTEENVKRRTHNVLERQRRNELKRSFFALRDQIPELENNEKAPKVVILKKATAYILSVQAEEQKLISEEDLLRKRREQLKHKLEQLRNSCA

[7] = test system: HL60 cells; conditions: read-out: IC50 on HL60 cells (growth inhibition); cited from earlier work
[8] = biological target: T2, c-Myc/Max (Mus musculus, UniProt P01108); experiment: expression analysis (quantitative PCR) in 10058-F4-treated mES cells; format: cell-based, murine; conditions: 50 μM for 6 hours
T2 construct: endogenous in cells; host or cells: V6.5 (C57BL/6-129) murine ES cells
T2 sequence (P01108 whole entry): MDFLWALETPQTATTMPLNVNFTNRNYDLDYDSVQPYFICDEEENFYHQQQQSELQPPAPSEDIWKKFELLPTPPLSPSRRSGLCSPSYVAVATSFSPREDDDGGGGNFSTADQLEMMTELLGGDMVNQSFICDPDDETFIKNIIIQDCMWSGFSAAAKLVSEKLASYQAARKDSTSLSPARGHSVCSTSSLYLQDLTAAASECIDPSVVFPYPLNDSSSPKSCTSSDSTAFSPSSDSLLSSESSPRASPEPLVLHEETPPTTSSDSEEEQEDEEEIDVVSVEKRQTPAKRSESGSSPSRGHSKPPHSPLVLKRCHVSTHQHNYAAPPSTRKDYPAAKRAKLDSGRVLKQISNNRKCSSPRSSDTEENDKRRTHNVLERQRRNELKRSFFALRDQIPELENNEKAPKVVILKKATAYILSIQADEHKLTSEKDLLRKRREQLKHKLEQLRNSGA
Description: FIGS. 6A to 6E. c-Myc inhibition effects transcription at the pause release step. (A) RNA was extracted from mES cells treated with 10058-F4 or vehicle alone (DMSO) for 6 hours and used to generate cDNA using reverse transcription. Expression change was calculated for 10058-F4 treated cells compared vehicle alone control for two non-c-Myc target genes (Brg1, Rnf2-green) and five c-Myc target genes (Bax, Nol5, Zfp451, Brca2 and Atic—blue) from two independent experiments. Error bars represent s.d. from triplicate qPCR reactions. (B) mES cells were treated with 10058-F4 for either 1.5, 6 or 12 hours. Extracts were analyzed using Western blot using antibodies against Pol II Ser2P CTD, Pol II Ser5P CTD and Cdk9 to determine the levels of the modified forms of Pol II. TBP was used as a loading control. […]
To more directly test whether c-Myc regulates pause release and the associated Pol II CTD phosphorylation at Ser2, we used a low molecular weight inhibitor of c-Myc/Max, 10058-F4, which inhibits c-Myc/Max heterodimerization both in vitro and in vivo (Hammoudeh et al., 2009; Wang et al., 2007; Yin et al., 2003). Max co-occupies c-Myc binding sites as determined by ChIP, confirming that c-Myc and Max function together at target genes in ES cells (FIG. 14A). […]

[9] = biological target: T2, c-Myc/Max; experiment: Pol II ChIP-seq / traveling ratio in 10058-F4-treated mES cells; format: cell-based, murine; conditions: 50 μM for 6 hours
Description: (§1) FIGS. 6A to 6E. c-Myc inhibition effects transcription at the pause release step. (A) RNA was extracted from mES cells treated with 10058-F4 or vehicle alone (DMSO) for 6 hours and used to generate cDNA using reverse transcription. Expression change was calculated for 10058-F4 treated cells compared vehicle alone control for two non-c-Myc target genes (Brg1, Rnf2-green) and five c-Myc target genes (Bax, Nol5, Zfp451, Brca2 and Atic—blue) from two independent experiments. Error bars represent s.d. from triplicate qPCR reactions. (B) mES cells were treated with 10058-F4 for either 1.5, 6 or 12 hours. Extracts were analyzed using Western blot using antibodies against Pol II Ser2P CTD, Pol II Ser5P CTD and Cdk9 to determine the levels of the modified forms of Pol II. TBP was used as a loading control. (C) Pol II ChIP-seq binding profiles in mES cells treated with 10058-F4 (c-Myc/Max inhibitor; blue), vehicle alone (black), or flavopiridol (P-TEFb inhibitor; red). Pol II occupancy is shown for three c-Myc target genes (Ncl, Npm1 and Nol5) and two non-cMyc target gene (Txnip and Chpf2). Cells were treated with 10058-F4 or DMSO for 6 hours. See also FIG. 14. (D) Average Pol II binding plots for the high confidence cMyc targets and non-c-Myc target genes in no drug (black), and 10058-F4 treatment (blue). […] The right panel is a close up of the transcribed region to show the difference in amounts of elongating Pol II density under the different conditions. Also included in the right panel for comparison is elongating Pol II density following flavopiridol treatment (red). (E) Pol II traveling ratio (TR) as described in FIG. 1C for the high confidence c-Myc target genes and non-c-Myc target genes following 10058-F4 treatment (blue) or no drug (black). The left panel is the TR for the c-Myc targets and right panel is the TR for non-c-Myc targets. Higher TR values indicate a higher degree of pausing in this gene set.
If c-Myc regulates pause release, then inhibition by 10058-F4 should have an effect on Pol II levels in promoter and gene bodies similar to that of flavopiridol, but only at c-Myc occupied genes. […]
We carried out a more global analysis of the effect of 10058-F4 on Pol II occupancy of genes bound by c-Myc and compared these patterns to genes that are not bound by this factor but show evidence of elongation (FIG. 6D). […] A similar shift in TR at the c-Myc target genes was also detected following c-Myc shRNA knockdown, indicating genes become more paused (FIG. 14F). […]
RNAPolII—10058F4Treated_Tracks.WIG.gz—contains two ChIP-seq datasets mapped to mouse genome mm8 using a +200 bp extension model that can be uploaded to the UCSC genome browser to view binding events. The ChIP experiments were done using the N20 Pol II antibody (sc-899) to determined total Pol II occupancy. […]

[10] = biological target: T2, c-Myc/Max; experiment: Western blot of 10058-F4-treated mES cells; format: cell-based, murine
Description: as §1, with “Also included in the right panel for comparison is elongating Pol II density following flavopiridol treatment (red). (E) Pol II traveling ratio (TR) as described in FIG. 1C for the high confidence c-Myc target genes and non-c-Myc target genes following 10058-F4 treatment (blue) or no drug (black). The left panel is the TR for the c-Myc targets and right panel is the TR for non-c-Myc targets. Higher TR values indicate a higher degree of pausing in this gene set.” left out
FIGS. 14A to 14F. […] Max ChIP DNA was analyzed using qPCR at the selected binding sites and enrichment was calculated for replicate PCR reactions over input DNA at each region. […] Protein extracts were analyzed using Western blots and probed with antibodies against CycT1 and Cdk9. […] ES cells were infected for 24 hours, then selected for 72 hours prior to harvesting. c-Myc levels were determined using RT-PCR analysis and normalized against a Gapdh control. […] ES cells were infected for 24 hours, then selected for 72 hours prior to harvesting. c-Myc levels were determined using Western blot analysis using an antibody against c-Myc. […]

[11] = test system: c-Myc-dependent oncogenic transformation of chicken embryo fibroblasts; conditions: at 20 μM; cited from earlier work
[12] = ES cells treated with 10058-F4 for 1.5, 6 or 12 hours

**Q.** With `CC[C@H](CO)Nc1nc(NCc2ccccc2)c2ncn(C(C)C)c2n1` [roscovitine, 2-(R)-(1-Ethyl-2-hydroxyethylamino)-6-benzylamino-9-isopropyl purine] as the molecule, how does the dose-limiting toxicities ([1]; at 800 mg b.i.d.) read?
**A.** grade 3 fatigue, grade 3 skin rash, grade 3 hyponatraemia and grade 4 hypokalaemia

**Q.** What about the “dose at which dose-limiting toxicities were seen” value ([1]; patients with solid tumors, 7-day b.i.d. p.o. schedule) of the same molecule?
**A.** 800 mg b.i.d.

**Q.** What does the source list for `CN1CC[C@H](c2c(O)cc(O)c3c(=O)cc(-c4ccccc4Cl)oc23)[C@H](O)C1` [flavopiridol, (−)-2-(2-Chlorophenyl)-5,7-dihydroxy-8-[(3S,4R)-3-hydroxy-1-methyl-4-piperidinyl]-4H-1-benzopyran-4-one hydrochloride]?
**A.** Spt5 occupancy downstream of promoter proximal sites [2]: depleted; genes with a change in Pol II TR of at least 1.5 upon drug treatment ([3]; 1 μM for 60 minutes): 75%; pause release at genes that are not targets of c-Myc ([3]; flavopiridol treatment, Pol II ChIP-seq): block in pause release; main side effects ([4]; doses achieving plasma levels of approximately 400 nM, 72 hour treatment): fatigue, venous thromboses, and diarrhea; plasma flavopiridol levels ([4]; during a 72 hour treatment period): approximately 400 nM; Ser5 phosphorylation of Pol II [5]: remained unaffected; phosphorylation of Pol II Ser2 [5]: reduced phosphorylation; phosphorylation of Spt5 [5]: reduced phosphorylation

**Q.** With `CC(C)c1ccc(/C=C2\SC(=S)N(CN3CCCCC3)C2=O)cc1` [28RH-NCN-1] as the molecule, how does the “inhibition of DNA binding of c-Myc” value [6] read?
**A.** comparable to that of the parent compound

**Q.** What about the IC50 [7] of the same molecule?
**A.** 29 µM

**Q.** With `CCc1ccc(/C=C2\SC(=S)NC2=O)cc1` [10058-F4] as the molecule, how does the “decrease in the expression of c-Myc target genes” value [8] read?
**A.** 20-40%

**Q.** What about the “expression of two non-c-Myc target genes” value [8] of the same molecule?
**A.** did not affect

**Q.** And the “TR at c-Myc target genes” value [9]?
**A.** substantial increase

**Q.** And the “TR at non-c-Myc targets” value [9]?
**A.** no such shift

**Q.** What about the “Pol II density in transcribed regions” value ([9]; c-Myc targets, gene body p=7.341e-06) of the same molecule?
**A.** clear reduction

**Q.** And the “Pol II density at promoters” value ([9]; c-Myc targets, p=0.4536)?
**A.** little effect

**Q.** And the IC50 [7]?
**A.** 49 µM

**Q.** What about the “levels of Pol II Ser2P” value [10, 12] of the same molecule?
**A.** significant reduction

**Q.** And the “levels of Pol II Ser5P” value [10, 12]?
**A.** remained unaffected

**Q.** And the “protein levels of P-TEFb components Cdk9 or CycT1” value ([10]; mES cells, 10058-F4 for 6 hours)?
**A.** did not alter

**Q.** Which “inhibition of c-Myc-dependent oncogenic transformation” value [11] does the source give for `COc1ccc(CN(C(=O)c2ccccn2)C(C(=O)NC2CCCCC2)c2ccc3cc(OCC(=O)OC(C)(C)C)ccc3c2)cc1` (centres unmarked) [NY2267] here?
**A.** strongly inhibited
